In patent US20260184675A1, “CHIRAL ISOMERIC SULFITE COMPOUND AND APPLICATION THEREOF” (Chengdu Hanova BioSciences Co., Ltd, priority 2024, published 2026):

Tests used:
eggs of Panonychus citri = test: Effect on hatching of eggs of Panonychus citri, leaf disc method; type: in vivo; settings: 1 ppm; for Hatching rate (%), Replicate 1 / Hatching rate (%), Replicate 2 / Hatching rate (%), Replicate 3 / Number of hatched larvae 5 days after insecticide delivery, Replicate 1 / Number of hatched larvae 5 days after insecticide delivery, Replicate 2 / Number of hatched larvae 5 days after insecticide delivery, Replicate 3: Panonychus citri eggs; for Hatching rate (%), Replicate 1 / Hatching rate (%), Replicate 2 / Hatching rate (%), Replicate 3: 5 days after delivery; for Number of hatched larvae 5 days after insecticide delivery, Replicate 1 / Number of hatched larvae 5 days after insecticide delivery, Replicate 2 / Number of hatched larvae 5 days after insecticide delivery, Replicate 3: leaf disc
Magnaporthe grisea = type: cell-based; settings: 100 ppm; for Average antifungal rate (%) / Antifungal rate of Magnaporthe grisea (%), Replicate 1 / Antifungal rate of Magnaporthe grisea (%), Replicate 2 / Antifungal rate of Magnaporthe grisea (%), Replicate 3: 96-well plate; for Average antifungal rate (%): average of 3 replicates
eggs of Thrips = test: Effect on hatching of eggs of Thrips, leaf disc method; type: in vivo; settings: 100 ppm; for Hatching rate (%): 5 days after insecticide delivery
In short: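 Egg-bearing Vicia faba leaf discs (diameter 2.0 cm, wetted filter paper beneath) were counted microscopically for baseline eggs. They were then soaked for 10 seconds in water or in test agent at 100 ppm. After moist incubation in lidded dishes, with controlled temperature and humidity and adequate indirect light, hatched larvae were counted five days post-delivery to judge hatching inhibition.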

[1] = system: eggs of Harmonia axyridis; test: Effect on hatching of eggs of Harmonia axyridis, egg card immersion; type: in vivo; settings: 100 ppm; for Number of hatched larvae 4 days after insecticide delivery, Replicate 1 / Number of hatched larvae 4 days after insecticide delivery, Replicate 2 / Number of hatched larvae 4 days after insecticide delivery, Replicate 3: Harmonia axyridis egg cards, immersed 30 seconds; for Hatching rate (%), Replicate 1 / Hatching rate (%), Replicate 2 / Hatching rate (%), Replicate 3: Harmonia axyridis eggs, 4 days after delivery
In short: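 Egg cards (~20 eggs each) dipped 30 s in 100 ppm insecticide, air dried and kept moist at 27° C; 5 cards per treatment, 3 replicates. Hatching assessed 4 days after treatment against pre-treatment egg counts, and control effect calculated by formula.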

Structure (SMILES) | Hatching rate (%), Replicate 1 (eggs of Panonychus citri) | Hatching rate (%), Replicate 2 (eggs of Panonychus citri) | Hatching rate (%), Replicate 3 (eggs of Panonychus citri) | Number of hatched larvae 5 days after insecticide delivery, Replicate 1 (eggs of Panonychus citri) | Number of hatched larvae 5 days after insecticide delivery, Replicate 2 (eggs of Panonychus citri) | Number of hatched larvae 5 days after insecticide delivery, Replicate 3 (eggs of Panonychus citri) | inhibitory rate against Magnaporthe grisea (in words) (Magnaporthe grisea) | Average antifungal rate (%) (Magnaporthe grisea) | Antifungal rate of Magnaporthe grisea (%), Replicate 1 (Magnaporthe grisea) | Antifungal rate of Magnaporthe grisea (%), Replicate 2 (Magnaporthe grisea) | Antifungal rate of Magnaporthe grisea (%), Replicate 3 (Magnaporthe grisea) | Hatching rate (%) (eggs of Thrips; Replicate 1) | Hatching rate (%) (eggs of Thrips; Replicate 2) | Hatching rate (%) (eggs of Thrips; Replicate 3) | Number of hatched larvae 5 days after insecticide delivery (eggs of Thrips; Replicate 1) | Number of hatched larvae 5 days after insecticide delivery (eggs of Thrips; Replicate 2) | Number of hatched larvae 5 days after insecticide delivery (eggs of Thrips; Replicate 3) | Number of hatched larvae 4 days after insecticide delivery, Replicate 1 [1] | Number of hatched larvae 4 days after insecticide delivery, Replicate 2 [1] | Number of hatched larvae 4 days after insecticide delivery, Replicate 3 [1] | other results
CC(C)(COc1ccc(Cl)cc1Cl)OS(=O)OCCF (centres unmarked) [Compound R-10] | 9.65% | 9.78% | 10.37% | 11 | 9 | 14 | strong inhibitory rate | 82.52% | 81.97% | 83.68% | 81.92% | 15.31% | 14.50% | 14.53% | 15 | 19 | 17 | 15 | 10 | 13 | Hatching rate (%), Replicate 1 [1]: 12.00%; Hatching rate (%), Replicate 2 [1]: 11.90%; Hatching rate (%), Replicate 3 [1]: 12.87%
CC(C)(COc1ccc(Cl)cc1Cl)OS(=O)OCCF (centres unmarked) [Compound S-10] | 0.00% | 0.00% | 0.00% | 0 | 0 | 0 | strong inhibitory rate | 98.62% | 98.63% | 99.72% | 97.51% | 0.00% | 0.00% | 0.00% | 0 | 0 | 0 | 0 | 0 | 0 | inhibitory effect on the hatching of eggs of Panonychus citri (in words) (eggs of Panonychus citri): good inhibitory effects; inhibitory activity on the hatching of eggs of Thrips (in words) (eggs of Thrips): strong inhibitory activities; inhibitory activity on the hatching of eggs of Harmonia axyridis (in words) [1]: strong inhibitory activities; Hatching rate (%), Replicate 1 [1]: 0.00%; Hatching rate (%), Replicate 2 [1]: 0.00%; Hatching rate (%), Replicate 3 [1]: 0.00%
CC(C)(COS(=O)OCCF)Oc1ccc(Cl)cc1Cl (centres unmarked) [R-10′] | 10.29% | 10.31% | 9.62% | 14 | 10 | 10 | strong inhibitory rate | 82.60% | 82.71% | 81.95% | 83.14% | 13.93% | 15.05% | 13.97% | 17 | 14 | 19 | 17 | 14 | 12 | Hatching rate (%), Replicate 1 [1]: 12.78%; Hatching rate (%), Replicate 2 [1]: 13.73%; Hatching rate (%), Replicate 3 [1]: 12.77%
CC(C)(COS(=O)OCCF)Oc1ccc(Cl)cc1Cl (centres unmarked) [S-10′] | 0.00% | 0.00% | 0.00% | 0 | 0 | 0 | strong inhibitory rate | 99.31% | 100.03% | 99.64% | 98.27% | 0.00% | 0.00% | 0.00% | 0 | 0 | 0 | 0 | 0 | 0 | inhibitory effect on the hatching of eggs of Panonychus citri (in words) (eggs of Panonychus citri): good inhibitory effects; inhibitory activity on the hatching of eggs of Thrips (in words) (eggs of Thrips): strong inhibitory activities; inhibitory activity on the hatching of eggs of Harmonia axyridis (in words) [1]: strong inhibitory activities; Hatching rate (%), Replicate 1 [1]: 0.00%; Hatching rate (%), Replicate 2 [1]: 0.00%; Hatching rate (%), Replicate 3 [1]: 0.00%
